Assay results: patent publication US10710988B2, “Piperazine derivative” (Astellas Pharma Inc., priority 2016, dated 2020)
Like-named read-outs stand apart in the source and are kept apart here.

Columns and labels:
[1] = target: T1, human MC1 receptor (Homo sapiens, UniProt Q01726); assay: Human MC1 receptor activation, cAMP production in cells transiently expressing the receptor; format: cell-based; settings: FreeStyle 293-F cells expressing human MC1 receptor, α-MSH maximum = 100%
T1 construct: expressed in transfected cells; host or cells: FreeStyle 293-F cells (transient, electroporation)
T1 sequence (Q01726 whole entry): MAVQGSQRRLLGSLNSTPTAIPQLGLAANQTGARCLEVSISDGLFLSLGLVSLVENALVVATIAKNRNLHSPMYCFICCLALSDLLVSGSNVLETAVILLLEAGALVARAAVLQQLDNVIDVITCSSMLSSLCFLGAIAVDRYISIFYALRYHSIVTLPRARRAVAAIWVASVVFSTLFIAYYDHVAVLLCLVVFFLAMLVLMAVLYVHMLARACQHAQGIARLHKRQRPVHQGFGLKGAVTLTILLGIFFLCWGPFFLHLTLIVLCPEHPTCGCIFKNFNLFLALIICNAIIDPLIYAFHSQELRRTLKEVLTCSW
Source text: (§1) (1) Construction of Human MC Receptor-Expressing Vector
(§2) A human MC4 receptor gene (GenBank Accession No.: NM_005912.2), a human MC1 receptor gene (GenBank Accession No.: NM_002386.3), or a human MC3 receptor gene (GenBank Accession No.: NM_019888.3) was introduced into an expression vector pcDNA™ 3.1N/V5-His TOPO (registered trademark) (Thermo Fisher Scientific Inc).
(§3) (2) Construction of Cells Transiently Expressing Human MC Receptor
(§4) An expression vector for a human MC4, MC1, or MC3 receptor was introduced into FreeStyle™ 293-F cells (Thermo Fisher Scientific Inc., product number: R790-07). For the introduction, electroporation was employed. That is, 1×10^7 FreeStyle™ 293-F cells were suspended in 80 μL of an Electroporation Buffer (Thermo Fisher Scientific Inc., product number: B201-100), and 20 μg of the expression vector was added thereto. The resultant was put into a cuvette (OC-100 Processing Assembly, MaxCyte, Inc.) and electroporated with MaxCyte STX (registered trademark) (MaxCyte, Inc.). The cells were cultured for a day, suspended in a Cell Banker (registered trademark) 1 (TAKARA BIO INC. or JUJI FIELD Inc., product number: BLC-1), and stored frozen until they were used.
(§5) (3) Measurement of Amount of cAMP Production
(§6) Measurement was carried out by using a LANCE (registered trademark) Ultra cAMP Kit (PerkinElmer, Inc.) in accordance with the attached instructions. That is, after dissolution in DMSO, the test compound (a final concentration of 1 pM to 30 μM) diluted with an assay buffer (Hank's balanced salt solution, 5 mM 4-(2-hydroxyethyl)-1-piperazineethanesulfonic acid (HEPES), 0.5 mM 3-isobutyl-1-methylxanthine (IBMX), 0.1% bovine serum albumin, pH 7.4), or α-MSH (Bachem Inc., a final concentration of 1 pM to 30 μM) was added to OptiPlate-384 (PerkinElmer, Inc.). Furthermore, the suspension of the cells transiently expressing the human MC4, MC1, or MC3 receptor prepared using the assay buffer was added thereto at 1,000 cells/well, and then left to stand at room temperature for about 1 hour. Thereafter, an Eu-cAMP tracer solution and an ULight™-anti-cAMP solution were added thereto, and then the resulting solution was left to stand at room temperature for about 1 hour. The amount of cAMP was calculated using EnVision (registered trademark) (PerkinElmer Inc.).
(§7) For the agonistic activity, the efficacy (EC50 (μM)) was calculated by a non-linear regression method with a Sigmoid-Emax model, by defining the maximum reaction using α-MSH as 100% and the reaction using the vehicle alone as 0%, respectively.

[2] = target: T2, human MC3 receptor (Homo sapiens, UniProt P41968); assay: Human MC3 receptor activation, cAMP production in cells transiently expressing the receptor; format: cell-based; settings: FreeStyle 293-F cells expressing human MC3 receptor, α-MSH maximum = 100%
T2 construct: expressed in transfected cells; host or cells: FreeStyle 293-F cells (transient, electroporation)
T2 sequence (P41968 whole entry): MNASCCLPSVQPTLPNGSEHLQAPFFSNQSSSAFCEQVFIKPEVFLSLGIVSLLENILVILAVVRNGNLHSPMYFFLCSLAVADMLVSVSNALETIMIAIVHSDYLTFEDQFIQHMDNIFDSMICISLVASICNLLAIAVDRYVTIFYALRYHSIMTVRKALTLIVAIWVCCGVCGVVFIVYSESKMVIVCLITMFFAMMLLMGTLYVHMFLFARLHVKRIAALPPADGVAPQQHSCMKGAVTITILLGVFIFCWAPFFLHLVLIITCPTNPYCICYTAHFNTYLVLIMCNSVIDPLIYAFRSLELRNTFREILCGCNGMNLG
Source text: as §1, §2, §3, §4, §5, §6, §7

[3] = system: phenylephrine-induced urethral pressure increase; assay: Effect on rat urethral pressure (phenylephrine-induced urethral pressure increase); format: in vivo; settings: read-out: ID40
Protocol: The present Test Example was performed by partially modifying the technique reported as a testing system for evaluating a urethral resistance-reducing action (European Journal of Pharmacology, 679, 127-131 (2012)). Male Wistar rats (Charles River Laboratories Japan, Inc.) were anesthetized with urethane (1.2 g/kg ip), and immobilized in a supine position. The midline incision was performed in the lower abdominal portion such that the bladder was exposed. The bladder apex was incised, and from the incision site, a microchip pressure transducer catheter (3.5 Fr, Millar, Inc) was inserted and implanted into the inside of the urethra. In addition, a cannula for drug administration was implanted into the femoral vein. After the urethral pressure was stabilized, phenylephrine hydrochloride (Sigma-Aldrich Co. LLC., 30 μg/kg) was intravenously administered to induce an increase in the urethral pressure. At an interval of about 30 minutes, the above operation was repeated twice or more so as to confirm the stability of the phenylephrine hydrochloride-induced urethral pressure increasing reaction. Then, a test compound (dissolved in 20% dimethyl acetamide, 10% Cremophor (registered trademark), and 70% physiological saline) was intravenously administered, and after 5 minutes, phenylephrine hydrochloride was administered. The procedure of the administration of the test compound and the administration of phenylephrine hydrochloride was repeated at an interval of about 30 minutes, and 3 to 5 doses of the test compound was evaluated (the test compound was administered at increasing doses). The obtained data was introduced into a personal computer through PowerLab (registered trademark) (ADInstruments, Inc.) and analyzed using LabChart (registered trademark) (ADInstruments, Inc.). For the evaluation, the value (AUC value, mmHg-s) of the area under the urethral pressure for one minute before and after administration of phenylephrine hydrochloride was determined to calculate the difference (ΔAUC value) between the AUC value before the administration of phenylephrine hydrochloride and the AUC value after the administration of phenylephrine hydrochloride. The ΔAUC value obtained before administering the test compound was regarded as being 100%, and based on this, the ratio (reaction rate) of the ΔAUC value of the test compound at each dose was calculated. The dose at which the obtained reaction rate became 60% (40% as an inhibition rate) was defined as ID40, and the ID40 values of the test compounds were calculated by non-linear regression.

[4] = target: T3, human MC4 receptor (Homo sapiens, UniProt P32245); assay: Human MC4 receptor activation, cAMP production in cells transiently expressing the receptor; format: cell-based; settings: FreeStyle 293-F cells expressing human MC4 receptor, α-MSH maximum = 100%
T3 construct: expressed in transfected cells; host or cells: FreeStyle 293-F cells (transient, electroporation)
T3 sequence (P32245 whole entry): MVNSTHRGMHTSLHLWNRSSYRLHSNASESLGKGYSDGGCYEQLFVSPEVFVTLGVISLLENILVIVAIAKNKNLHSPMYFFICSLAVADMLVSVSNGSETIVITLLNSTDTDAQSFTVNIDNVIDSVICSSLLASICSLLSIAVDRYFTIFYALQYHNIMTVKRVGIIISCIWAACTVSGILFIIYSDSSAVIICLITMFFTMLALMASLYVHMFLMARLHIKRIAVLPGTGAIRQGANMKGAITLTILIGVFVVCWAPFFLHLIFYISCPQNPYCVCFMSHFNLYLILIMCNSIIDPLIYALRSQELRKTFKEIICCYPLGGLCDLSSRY
Source text: as §1, §2, §3, §4, §5, §6, §7

[5] = target: T4, rat MC4 receptor (Rattus norvegicus, UniProt P70596); assay: Rat MC4 receptor activation, cAMP production in cells transiently expressing the receptor; format: cell-based; settings: FreeStyle 293-F cells expressing rat MC4 receptor, α-MSH maximum = 100%
T4 construct: expressed in transfected cells; host or cells: FreeStyle 293-F cells (transient, electroporation)
T4 sequence (P70596 whole entry): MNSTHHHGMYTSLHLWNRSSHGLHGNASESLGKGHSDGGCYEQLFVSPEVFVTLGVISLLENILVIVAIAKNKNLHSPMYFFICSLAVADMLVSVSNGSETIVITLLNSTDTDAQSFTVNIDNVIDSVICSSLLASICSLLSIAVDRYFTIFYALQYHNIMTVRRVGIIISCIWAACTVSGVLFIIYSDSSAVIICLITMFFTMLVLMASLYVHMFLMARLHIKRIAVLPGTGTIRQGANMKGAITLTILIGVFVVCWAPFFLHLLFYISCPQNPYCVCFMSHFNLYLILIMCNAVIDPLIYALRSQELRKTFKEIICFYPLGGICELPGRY
Source text: (1) Construction of Rat MC4 Receptor-Expressing Vector
A rat MC4 receptor gene (GenBank Accession No.: NM_013099.3) was introduced into an expression vector pcDNA™ 3.1N/V5-His TOPO (registered trademark) (Thermo Fisher Scientific Inc.).
(2) Construction of Cells Transiently Expressing Rat MC4 Receptor
as §4, with “rat MC4” for “human MC4, MC1, or MC3”, “Inc.).” for “Inc., product number: R790-07).”, “electroporation buffer” for “Electroporation Buffer”, “Inc.),” for “Inc., product number: B201-100),”, “Inc.),” for “Inc., product number: BLC-1),”
as §5
Measurement was carried out in accordance with the attached instructions, using a LANCE (registered trademark) Ultra cAMP Kit (PerkinElmer, Inc.). That is, after dissolution in DMSO, the test compound (a final concentration of 1 pM to 30 μM) diluted with an assay buffer (Hank's balanced salt solution, 5 mM HEPES, 0.5 mM IBMX, 0.1% bovine serum albumin, pH 7.4), or α-MSH (Bachem Inc., a final concentration of 1 pM to 30 μM) was added to OptiPlate-384 (PerkinElmer, Inc.). Furthermore, the suspension of the cells transiently expressing the rat MC receptor that was prepared using the assay buffer was added thereto at 1,000 cells/well, and then left to stand at room temperature for about 1 hour. Thereafter, an Eu-cAMP tracer solution and an ULight™-anti-cAMP solution were added thereto, and the resulting solution was left to stand at room temperature for about 1 hour. The amount of cAMP was calculated using EnVision (registered trademark) (PerkinElmer Inc).
For the agonistic activity, an efficacy (EC50 (μM)) was calculated by a non-linear regression method with a Sigmoid-Emax model, by defining the maximum reaction using α-MSH as 100% and the reaction using a vehicle alone as 0%, respectively.

[6] = male Wistar rats, urethane anesthesia, intravenous, dose giving 40% inhibition of phenylephrine-induced urethral pressure ΔAUC

| SMILES | EC50 [1] | EC50 [2] | ED40 ([3]; iv) | EC50 [4] | ED40 [3, 6] | EC50 [5] |
| --- | --- | --- | --- | --- | --- | --- |
| CC(=O)N[C@@H](CC(C)(C)C)C(=O)N1C[C@H](C)N(C(=O)[C@@H]2CN(C3CCOCC3)C[C@H]2c2ccc(Cl)cc2F)C[C@H]1C [Example 3] | 5700 nM | 310 nM | 8.9 mg/kg | 8 nM |  |  |
| CC(=O)N[C@@H](CC1CCCC1)C(=O)N1CCN(C(=O)[C@@H]2CN(C(C)(C)C)C[C@H]2c2ccc(F)cc2F)[C@@H](C)C1.Cl [Example 16, N-((2S)-1-[(3S)-4-{[(3S,4R)-1-tert-butyl-4-(2,4-difluorophenyl)pyrrolidin-3-yl]carbonyl}-3-methylpiperazin-1-yl]-3-cyclopentyl-1-oxopropan-2-yl) acetamide monohydrochloride] |  |  |  | 14 nM | 11 mg/kg |  |
| CC(=O)N[C@@H](CC(C)(C)C)C(=O)N1CCN(C(=O)[C@@H]2CN(C3CCOCC3)C[C@H]2c2ccc(Cl)cc2F)[C@@H](C)C1.Cl [Example 20, N-{(2S)-1-[(3S)-4-{[(3 S,4R)-4-(4-chloro-2-fluorophenyl)-1-(tetrahydro-2H-pyran-4-yl)pyrrolidin-3-yl]carbonyl}-3-methylpiperazin-1-yl]-4,4-dimethyl-1-oxopentan-2-yl}acetamide monohydrochloride] | 8000 nM | 1200 nM |  | 23 nM | 40 mg/kg | 7.6 nM |
